Test results from patent US12162858B2, “Quinoline derivatives as inhibitors of AXL/MER RTK and CSF1R” (QURIENT CO., LTD., priority 2018, dated 2024).

Target: CSF1R (Homo sapiens, UniProt P07333)
Experiment: Cellular CSF1R inhibition ELISA (p-CSF1R, M-CSF-induced) using THP-1 cells
Type: cell-based
Design: THP-1 cells act as a model for human monocytes; endogenous in cells; host or cells: THP-1
Description: The normal proto-oncogene c-fms encodes the macrophage growth factor (M-CSF, also known as CSF1) receptor involved in growth, survival, and differentiation along the monocyte-macrophage lineage. THP-1 cells act as a model for human monocytes. It confirms that an increased phosphorylation of CSF1R (p-CSF1R) can be observed, when induced by CSF1R ligand, CSF1.
The THP-1 cells should be maintained from 5×10^5 to 1×10^6 cells/ml in the cell culture flask. After centrifugation, the supernatant is aspirated. The cell pellet is re-suspended with pre-warmed growth medium (RPMI1640, 10% FBS, 0.05 mM 2-Mercaptoethanol) and cells are separated by pipetting 6 times up and down with a 10 ml serological pipette. The cell suspension has to be diluted to a final concentration of 2×10^5 cells per 80 μl with pre-warmed growth medium. 80 μl of cell suspension is added to all wells of plates. Cell-plates are incubated at 37° C./5% CO2. Dissolve compound in 100% DMSO to make 10 mM stock solutions (Aliquots stored in the Nitrogen Cabinet). Dilute 10 mM compounds solutions for 2-fold in 100% DMSO to get 5 mM solutions (10 μl+10 μl DMSO), and then make a 3-fold serial dilution (10 μl+20 μl DMSO) for 10 doses. For reference compounds: Dilute 10 mM compounds solutions for 20-fold in 100% DMSO to get 0.5 mM solutions (2 μl+38 μl DMSO), and then make a 3-fold serial dilution (10 μl+20 μl DMSO) for 10 doses. Transfer 2 μl diluted compounds to 198 μl medium to get solution of 50 μM concentration at top point for compounds and 5 μM for reference compounds. Then transfer 20 μl cpd solution into assay plate (Duplicate wells). The plate is incubated at 37° C./5% CO2 for 24 h. The final concentration of DMSO in all wells is […]. Reconstitute human M-CSF at 50 μg/ml in sterile water. (Aliquots stored in −80° C.). 1:1000 dilute human M-CSF by fresh medium to 50 ng/ml. After 24 h compounds treatment, transfer 25 μl diluted human M-CSF (50 ng/ml) to cell plate according to the plate map. The final concentration of human M-CSF in all wells is 10 ng/ml.
The plates is incubated at 37° C./5% CO2 for 5 min. In the beginning the appropriate amount of lysis buffer complete (100 μL/well) is prepared and stored on ice. After 5 min human M-CSF stimulation, wash plates once with 300 μL ice cold PBS. Then 100 μl lysis buffer is added to each well. The plate is shacked for 40 min at 4° C. Plates can now be stored at −20° C. After equilibrate the micro-well strips at room temperature, break off the required number of micro-wells. Place the micro-wells in the strip holder. Unused micro-wells must be resealed and stored at 4° C. immediately. Add 90 μl of cell lysate to the appropriate well. Seal with tape and press firmly onto top of micro-wells. Incubate the plate for 2 h at 37° C. Gently remove the tape and wash wells 4 times with 1× Wash Buffer, 200 μl each time for each well. Add 100 μl of reconstituted Detection Antibody (green color) to each well. Seal with tape and incubate the plate at 37° C. for 1 h. Repeat wash procedure. Add 100 μl of reconstituted HRP-Linked secondary antibody to each well. Seal with tape and incubate the plate for 30 min at 37° C. Repeat wash procedure. Add 100 μl of TMB Substrate to each well. Seal with tape and incubate the plate for 10 min at 37° C. or 30 min at 25° C. Calculations and Formulas: The following calculations and formulas are used for data analysis using XL Fit software: The curve fitting was made using the Sigmoidal Dose-Response Model (Fit model, 205).

CSF1R, sequence (P07333 20-972): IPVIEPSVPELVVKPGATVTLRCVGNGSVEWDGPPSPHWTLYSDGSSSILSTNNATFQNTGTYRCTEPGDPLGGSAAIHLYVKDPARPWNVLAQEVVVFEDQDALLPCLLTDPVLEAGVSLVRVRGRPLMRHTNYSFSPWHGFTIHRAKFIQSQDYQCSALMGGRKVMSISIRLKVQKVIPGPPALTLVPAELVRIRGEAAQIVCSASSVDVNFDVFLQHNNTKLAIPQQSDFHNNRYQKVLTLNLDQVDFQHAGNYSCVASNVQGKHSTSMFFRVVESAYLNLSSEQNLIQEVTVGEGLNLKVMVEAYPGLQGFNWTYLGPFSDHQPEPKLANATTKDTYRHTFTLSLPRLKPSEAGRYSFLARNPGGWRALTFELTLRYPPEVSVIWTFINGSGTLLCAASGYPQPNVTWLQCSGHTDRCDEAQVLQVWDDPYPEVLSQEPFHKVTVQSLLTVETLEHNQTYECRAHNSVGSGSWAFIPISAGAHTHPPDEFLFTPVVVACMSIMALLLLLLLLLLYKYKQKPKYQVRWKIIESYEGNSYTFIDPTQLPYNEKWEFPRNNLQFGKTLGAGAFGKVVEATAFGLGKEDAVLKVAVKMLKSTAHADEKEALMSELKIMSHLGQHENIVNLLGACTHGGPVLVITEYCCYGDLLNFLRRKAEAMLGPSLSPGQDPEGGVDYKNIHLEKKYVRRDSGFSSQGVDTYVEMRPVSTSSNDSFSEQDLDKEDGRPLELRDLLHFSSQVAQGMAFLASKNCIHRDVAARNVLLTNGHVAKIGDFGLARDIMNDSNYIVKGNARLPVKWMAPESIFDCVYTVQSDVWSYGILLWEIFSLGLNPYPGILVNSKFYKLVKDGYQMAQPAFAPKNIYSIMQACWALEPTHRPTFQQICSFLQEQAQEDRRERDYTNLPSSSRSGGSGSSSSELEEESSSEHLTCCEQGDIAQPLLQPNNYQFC

Structure (SMILES)	IC50 [nM]
COCCn1cc(OCC(F)(F)F)c(C(=O)Nc2ccc(Oc3ccnc4cc(OC)c(OC)cc34)cc2)n1 [Compound 61]	≥ 1000
COc1cc2nccc(Oc3ccc(NC(=O)c4nn(CCO)cc4OCC(F)(F)F)cc3C)c2cc1OC [Compound 56]	< 500
CCCn1cc(OCC(F)(F)F)c(C(=O)Nc2ccc(Oc3ccnc4cc(OC)c(OC)cc34)cc2C)n1 [Compound 27]	≥ 1000
COc1cc2nccc(Oc3ccc(NC(=O)c4nn(CC5CCCCC5)cc4OCC(F)(F)F)nc3)c2cc1OC [Compound 43]	< 500
CCCn1cc(OCCC(O)CO)c(C(=O)Nc2ccc(Oc3ccnc4cc(OC)c(OC)cc34)cn2)n1 (stereo not drawn) [Compound 15]	≥ 1000
COc1cc2nccc(Oc3ccc(NC(=O)c4nn(CCNC5CC5)cc4OCC(F)(F)F)nc3)c2cc1OC [Compound 168]	< 500
COc1cc2nccc(Oc3ccc(NC(=O)c4nn(C5CCOC5)cc4OCC(F)(F)F)cc3)c2cc1OC (stereo not drawn) [Compound 62]	≥ 1000
COc1cc2nccc(Oc3ccc(NC(=O)c4nn(CCO)cc4OCC(F)(F)F)nc3)c2cc1OC [Compound 67]	< 500
CCCn1cc(OCC(F)(F)F)c(C(=O)Nc2ccc(Oc3ccnc4cc(OC)c(OC)cc34)cc2F)n1 [Compound 28]	500 to 1000
COc1cc2nccc(Oc3ccc(NC(=O)c4nn(C)cc4OCC(F)(F)F)c(F)c3)c2cc1OC [Compound 45]	< 500
COc1cc2nccc(Oc3ccc(NC(=O)c4nn(CC(C)(F)F)cc4OCC(F)(F)F)nc3)c2cc1OC [Compound 64]	< 500
COc1cc2nccc(Oc3ccc(NC(=O)c4nn(CCO)cc4OCC(F)(F)F)cc3)c2cc1OC [Compound 59]	< 500
COc1cc2nccc(Oc3ccc(NC(=O)c4nn(CC(C)C)cc4OCC(F)(F)F)cc3F)c2cc1OC [Compound 53]	500 to 1000
CCCn1cc(N(C)CC2CCOCC2)c(C(=O)Nc2ccc(Oc3ccnc4cc(OC)c(OC)cc34)cn2)n1 [Compound 34]	≥ 1000
COc1cc2nccc(Oc3ccc(NC(=O)c4nn(CCCN)cc4OCC(F)(F)F)nc3)c2cc1OC [Compound 68]	< 500
CCCn1cc(OCC2CCC2)c(C(=O)Nc2ccc(Oc3ccnc4cc(OC)c(OC(F)(F)F)cc34)cn2)n1 [Compound 167]	≥ 1000
COc1cc2nccc(Oc3ccc(NC(=O)c4nn(CC5CCOC5)cc4OCC(F)(F)F)nc3)c2cc1OC (stereo not drawn) [Compound 44]	< 500
CCCn1cc(NCC(F)(F)F)c(C(=O)Nc2ccc(Oc3ccnc4cc(OC)c(OC)cc34)cn2)n1 [Compound 23]	< 500
COc1cc2nccc(Oc3ccc(NC(=O)c4nn(C(C)C)c(C)c4OCC(F)(F)F)nc3)c2cc1OC [Compound 2]	< 500

Structure (SMILES)	IC50 [nM]
COc1cc2nccc(Oc3ccc(NC(=O)c4nn(CCN)cc4OCC(F)(F)F)c(F)c3)c2cc1OC [Compound 75]	≥ 1000
COc1cc2nccc(Oc3ccc(NC(=O)c4nn(C5CC5)c(C(C)=O)c4OCC(F)(F)F)nc3)c2cc1OC [Compound 3]	< 500
COc1cc2nccc(Oc3ccc(NC(=O)c4cc(C5CC5)cnc4OCC(F)(F)F)nc3)c2cc1OC [Compound 178]	< 500
COc1cc2nccc(Oc3ccc(NC(=O)c4nn(C5CCNC5)cc4OCC(F)(F)F)c(F)c3)c2cc1OC (stereo not drawn) [Compound 74]	≥ 1000
COc1cc2nccc(Oc3ccc(NC(=O)c4nn(CC(C)O)cc4OCC(F)(F)F)nc3)c2cc1OC (stereo not drawn) [Compound 17]	< 500
COc1cc2nccc(Oc3ccc(NC(=O)c4nn(C(C)(C)C)cc4OCC(F)(F)F)nc3)c2cc1OC [Compound 22]	< 500
CCCn1cc(OCC(F)(F)F)c(C(=O)Nc2ccc(Oc3ccnc4cc(OC)c(OC)cc34)cc2)n1 [Compound 38]	500 to 1000
COc1cc2nccc(Oc3ccc(NC(=O)c4nn(C[C@@H](C)O)cc4OCC(F)(F)F)nc3)c2cc1OC [Compound 29]	< 500
COc1cc2nccc(Oc3ccc(NC(=O)c4nn(C)cc4OCC(F)(F)F)cc3F)c2cc1OC [Compound 50]	500 to 1000
CCCCn1cc(OCC(F)(F)F)c(C(=O)Nc2ccc(Oc3ccnc4cc(OC)c(OC)cc34)cn2)n1 [Compound 36]	< 500
COc1cc2nccc(Oc3ccc(NC(=O)c4nn(CC(C)C)cc4OCC(F)(F)F)nc3)c2cc1OC [Compound 21]	< 500
CCn1nc(C(=O)Nc2ccc(Oc3ccnc4cc(OC)c(OC)cc34)cn2)c(OCC(F)(F)F)c1C [Compound 1]	< 500
CCCn1cc(OC(C)C)c(C(=O)Nc2ccc(Oc3ccnc4cc(OC)c(OC(F)(F)F)cc34)c(F)c2)n1 [Compound 35]	≥ 1000
COc1cc2nccc(Oc3ccc(NC(=O)c4nn(CCCO)cc4OCC(F)(F)F)nc3)c2cc1OC [Compound 18]	< 500
COc1cc2nccc(Oc3ccc(NC(=O)c4nn(CCO)cc4OCC(F)(F)F)c(F)c3)c2cc1OC [Compound 46]	500 to 1000
COCCn1cc(OCC(F)(F)F)c(C(=O)Nc2ccc(Oc3ccnc4cc(OC)c(OC)cc34)cc2F)n1 [Compound 49]	≥ 1000
CCCn1cc(OCC(F)(F)F)c(C(=O)Nc2ccc(Oc3ccnc4cc(OC)c(OC)cc34)c(F)c2)n1 [Compound 25]	500 to 1000
COc1cc2nccc(Oc3ccc(NC(=O)c4nn(CC(C)C)cc4OCC(F)(F)F)cc3C)c2cc1OC [Compound 58]	≥ 1000

Other lines, results leading:

IC50 [nM]	Structure (SMILES)
≥ 1000	CCCn1cc(OCCN(C)C)c(C(=O)Nc2ccc(Oc3ccnc4cc(OC)c(OC)cc34)cn2)n1 [Compound 177]
< 500	COc1cc2nccc(Oc3ccc(NC(=O)c4nn(CC(C)=O)cc4OCC(F)(F)F)nc3)c2cc1OC [Compound 19]
< 500	COc1cc2nccc(Oc3ccc(NC(=O)c4nn(C5CCCCC5)cc4OCC(F)(F)F)nc3)c2cc1OC [Compound 69]
500 to 1000	COc1cc2nccc(Oc3ccc(NC(=O)c4nn(C5CCCC5)cc4OCC(F)(F)F)c(F)c3)c2cc1OC [Compound 47]
≥ 1000	COc1cc2nccc(Oc3ccc(NC(=O)c4nn(C5CC5)cc4OCC4CNC4)nn3)c2cc1OC [Compound 172]
≥ 1000	COCCOc1cn(C2CC2)nc1C(=O)Nc1ccc(Oc2ccnc3cc(OC)c(OC)cc23)nn1 [Compound 171]
500 to 1000	COc1cc2nccc(Oc3ccc(NC(=O)c4nn(C5CCCC5)cc4OCC(F)(F)F)cc3)c2cc1OC [Compound 60]
< 500	CCCn1cc(OCC(F)(F)F)c(C(=O)Nc2ccc(Oc3ccnc4cc(OC)c(OC)cc34)nn2)n1 [Compound 32]
< 500	COc1cc2nccc(Oc3ccc(NC(=O)c4nn(CC5CCC5)cc4OCC(F)(F)F)nc3)c2cc1OC [Compound 42]
≥ 1000	COc1cc2nccc(Oc3ccc(NC(=O)c4nn(CC(C)O)cc4OCC4CN(C)C4)nc3)c2cc1OC (stereo not drawn) [Compound 174]
< 500	COc1cc2nccc(Oc3ccc(NC(=O)c4nn(C5CCCC5)cc4OCC(F)(F)F)nc3)c2cc1OC [Compound 40]
< 500	COc1cc2nccc(Oc3ccc(NC(=O)c4nn(CC5CCCC5)cc4OCC(F)(F)F)nc3)c2cc1OC [Compound 71]
≥ 1000	COc1cc2nccc(Oc3ccc(NC(=O)c4nn(C5CC5)cc4OCCC(F)(F)F)nn3)c2cc1OC [Compound 173]
< 500	COc1cc2nccc(Oc3ccc(NC(=O)c4nn(CC5CNC5)cc4OCC(F)(F)F)nc3)c2cc1OC [Compound 73]
≥ 1000	COc1cc2nccc(Oc3ccc(NC(=O)c4nn(C5CCCC5)cc4OCC(F)(F)F)cc3F)c2cc1OC [Compound 52]
< 500	COc1cc2nccc(Oc3ccc(NC(=O)c4nn(CCOC5CCC5)cc4OCC(F)(F)F)nc3)c2cc1OC [Compound 65]
< 500	COc1cc2nccc(Oc3ccc(NC(=O)c4nn(C5CC5)cc4OCCC(F)(F)F)nc3)c2cc1OC [Compound 170]
